For 18 molecules, IC50 and Ki results are on record in ChEMBL document CHEMBL1909046, “DrugMatrix in vitro pharmacology data”.

In data set [1] the target is Melanocortin receptor 3 (Homo sapiens, UniProt P41968). In kind it is cell membranes, HEK293, Membrane. The conditions noted are these: hek293. Also: in other assays of this panel Not Active means under 50% inhibition at 10 µM.
Data set [2] deals with Carbonic anhydrase 2 (Homo sapiens, UniProt P00918). The data set can be described thus: DRUGMATRIX: Carbonic Anhydrase II enzyme inhibition (substrate: 4-Nitrophenyl acetate (4-NPA)). Type of data set: tissue-based, Erythrocyte. The conditions noted are these: Not Active = under 50% inhibition at 10 µM.
Data set [3] concerns the target Mitogen-activated protein kinase 1 (Homo sapiens, UniProt P28482). The experiment in a line: DRUGMATRIX: Protein Serine/Threonine Kinase, ERK2 enzyme inhibition (substrate: Myelin Basic Protein). The settings on record: Not Active = under 50% inhibition at 10 µM. Further details: species or system Escherichia coli.
The target of data set [4] is Beta-1 adrenergic receptor (Homo sapiens, UniProt P08588). The data set can be described thus: DRUGMATRIX: Adrenergic beta1 radioligand binding (ligand: [125I] Cyanopindolol). Type of data set: cell membranes, CHO-K1, Membrane. The conditions noted are these: cho-k1; Not Active = under 50% inhibition at 10 µM.
Data set [5] concerns the target Adenosine receptor A2a (Homo sapiens, UniProt P29274). The experiment in a line: DRUGMATRIX: Adenosine A2A radioligand binding (ligand: […]). In kind it is cell membranes, Membrane. The conditions noted are these: hek293; Not Active = under 50% inhibition at 10 µM.
Data set [6] concerns the target Glycine receptor (Rattus norvegicus, UniProt P22771+P24524+P07727+P20781). Type of data set: cell membranes, Wistar, Spinal cord, Membrane. Also: in other assays of this panel Not Active means under 50% inhibition at 10 µM.
The target of data set [7] is Cytochrome P450 2D6 (Homo sapiens, UniProt P10635). The conditions noted are these: bti-tn-5b1-4. Also: in other assays of this panel Not Active means under 50% inhibition at 10 µM.
Cytochrome P450 2D6, sequence (P10635 whole entry): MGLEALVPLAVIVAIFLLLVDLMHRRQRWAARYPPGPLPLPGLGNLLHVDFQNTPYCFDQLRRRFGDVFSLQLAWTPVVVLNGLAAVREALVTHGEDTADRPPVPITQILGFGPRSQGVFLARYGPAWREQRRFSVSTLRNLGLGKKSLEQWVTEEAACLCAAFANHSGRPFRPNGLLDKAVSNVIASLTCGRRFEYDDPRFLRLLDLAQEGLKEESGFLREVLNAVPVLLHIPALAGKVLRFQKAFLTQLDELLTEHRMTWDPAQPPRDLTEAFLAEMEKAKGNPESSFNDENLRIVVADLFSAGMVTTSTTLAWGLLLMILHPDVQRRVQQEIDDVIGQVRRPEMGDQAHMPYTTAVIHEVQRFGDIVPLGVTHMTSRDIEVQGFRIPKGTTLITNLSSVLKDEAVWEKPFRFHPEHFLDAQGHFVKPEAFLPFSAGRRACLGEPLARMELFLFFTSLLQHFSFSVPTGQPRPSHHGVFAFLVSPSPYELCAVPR

Mitogen-activated protein kinase 1, sequence (P28482 whole entry): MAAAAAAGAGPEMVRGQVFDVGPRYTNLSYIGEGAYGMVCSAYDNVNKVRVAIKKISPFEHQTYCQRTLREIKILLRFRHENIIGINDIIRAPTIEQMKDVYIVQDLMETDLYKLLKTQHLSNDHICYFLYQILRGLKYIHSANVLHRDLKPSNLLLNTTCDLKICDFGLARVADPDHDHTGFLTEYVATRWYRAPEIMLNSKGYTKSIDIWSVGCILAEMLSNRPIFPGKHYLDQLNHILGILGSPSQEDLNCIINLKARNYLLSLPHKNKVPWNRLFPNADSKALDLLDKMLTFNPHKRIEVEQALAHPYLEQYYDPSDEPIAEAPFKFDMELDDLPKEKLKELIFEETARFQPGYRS
Beta-1 adrenergic receptor, sequence (P08588 whole entry): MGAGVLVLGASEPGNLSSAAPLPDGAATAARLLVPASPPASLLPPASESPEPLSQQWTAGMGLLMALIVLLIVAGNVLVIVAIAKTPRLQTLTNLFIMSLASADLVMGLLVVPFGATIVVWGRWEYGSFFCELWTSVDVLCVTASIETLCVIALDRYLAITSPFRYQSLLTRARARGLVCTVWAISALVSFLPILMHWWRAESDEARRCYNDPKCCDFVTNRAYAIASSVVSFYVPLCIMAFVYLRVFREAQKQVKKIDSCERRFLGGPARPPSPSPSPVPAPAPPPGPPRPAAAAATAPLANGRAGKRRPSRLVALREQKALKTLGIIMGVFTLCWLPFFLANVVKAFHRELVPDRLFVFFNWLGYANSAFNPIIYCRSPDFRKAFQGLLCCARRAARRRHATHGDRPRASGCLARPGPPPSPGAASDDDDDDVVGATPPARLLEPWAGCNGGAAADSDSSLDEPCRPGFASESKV
Melanocortin receptor 3, sequence (P41968 whole entry): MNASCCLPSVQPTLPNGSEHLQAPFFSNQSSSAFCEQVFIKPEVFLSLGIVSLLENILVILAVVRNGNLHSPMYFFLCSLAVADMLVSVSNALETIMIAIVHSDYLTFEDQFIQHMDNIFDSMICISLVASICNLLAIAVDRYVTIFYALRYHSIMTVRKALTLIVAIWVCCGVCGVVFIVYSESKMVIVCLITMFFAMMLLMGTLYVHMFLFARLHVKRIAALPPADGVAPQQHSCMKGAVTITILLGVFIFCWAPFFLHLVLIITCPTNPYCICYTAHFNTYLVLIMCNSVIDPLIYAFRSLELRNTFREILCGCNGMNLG
Adenosine receptor A2a, sequence (P29274 whole entry): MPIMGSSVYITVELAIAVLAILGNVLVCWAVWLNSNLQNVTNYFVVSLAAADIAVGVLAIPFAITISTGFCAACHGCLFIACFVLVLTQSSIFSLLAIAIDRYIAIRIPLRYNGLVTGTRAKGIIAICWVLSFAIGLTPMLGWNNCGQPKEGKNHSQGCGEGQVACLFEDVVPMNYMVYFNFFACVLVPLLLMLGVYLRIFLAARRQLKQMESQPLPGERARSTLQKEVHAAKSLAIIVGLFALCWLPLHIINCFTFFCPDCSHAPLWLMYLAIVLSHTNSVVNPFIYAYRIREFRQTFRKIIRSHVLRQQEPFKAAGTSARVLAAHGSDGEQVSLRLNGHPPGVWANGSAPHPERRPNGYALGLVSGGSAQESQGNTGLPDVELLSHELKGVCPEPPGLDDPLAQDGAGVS

Consider `Cc1c(C)c2c(c(C)c1O)CCC(C)(COc1ccc(CC3SC(=O)NC3=O)cc1)O2` (stereo not given) [TROGLITAZONE], for which the IC50 result in data set [1] is “Not Active”; in data set [2] (read-out: IC50), 0.97 µM; in data set [3] (read-out: IC50), 1.24 µM; in data set [4], “Not Active”; in data set [5], “Not Active”; in data set [6] it was “Not Active”. Besides, the 50% inhibitory concentration (IC50) result in data set [7] is given as “Not Active”. For the same molecule, the Ki entry in data set [7] was “Not Active”.

`COc1nc(C)nc(Cl)c1NC1=NCCN1` [MOXONIDINE]: the concentration for half-maximal inhibition (IC50) entry in data set [1], in data set [2] (erythrocyte), in data set [3], in data set [4], in data set [5] and in data set [6] was “Not Active” in each case. Also, in data set [7], the IC50 entry is listed as “Not Active”. Besides, the Ki result in data set [7] is reported as “Not Active”.

With `N[C@@H](Cc1cc(I)c(Oc2ccc(O)c(I)c2)c(I)c1)C(=O)O` [LIOTHYRONINE], the IC50 entry in data set [1], in data set [2] (erythrocyte), in data set [3], in data set [4], in data set [5] and in data set [6] was “Not Active” throughout. Moreover, the IC50 entry in data set [7] is given as “Not Active”. In addition, the Ki entry in data set [7] is “Not Active”.

In the case of `OCCN(CCO)c1nc(N2CCCCC2)c2nc(N(CCO)CCO)nc(N3CCCCC3)c2n1` [DIPYRIDAMOLE], the half-inhibitory concentration (IC50) entry in data set [1], in data set [2] (erythrocyte), in data set [3], in data set [4], in data set [5] and in data set [6] was “Not Active” throughout. The IC50 entry in data set [7] is listed as “Not Active”. For the same molecule, in data set [7], the Ki entry is on record as “Not Active”.

On to `O=NN(CCCl)C(=O)NC1CCCCC1` [LOMUSTINE], for which the IC50 entry in data set [1], in data set [2] (erythrocyte), in data set [3], in data set [4], in data set [5] and in data set [6] was “Not Active” throughout. Besides, the IC50 entry in data set [7] was “Not Active”. The Ki result in data set [7] is “Not Active”.

Take `O=c1ncn2nc(Sc3ccc(F)cc3F)ccc2c1-c1c(Cl)cccc1Cl` [NEFLAMAPIMOD]: the IC50 result in data set [1], in data set [2] (erythrocyte), in data set [3], in data set [4], in data set [5] and in data set [6] was “Not Active” each time. The concentration for half-maximal inhibition (IC50) entry in data set [7] was “Not Active”. Further, in data set [7], the Ki result is listed as “Not Active”.

For the molecule `CC[C@]1(O)C[C@H]2CN(CCc3c([nH]c4ccccc34)[C@@](C(=O)OC)(c3cc4c(cc3OC)N(C=O)[C@H]3[C@@](O)(C(=O)OC)[C@H](OC(C)=O)[C@]5(CC)C=CCN6CC[C@]43[C@@H]65)C2)C1` [VINCRISTINE], the IC50 entry in data set [1], in data set [2] (erythrocyte), in data set [3], in data set [4], in data set [5] and in data set [6] was “Not Active” throughout. In addition, the IC50 entry in data set [7] is on record as “Not Active”. Also, in data set [7], the Ki entry was “Not Active”.

For `CSc1ccc(/C=C2/C(C)=C(CC(=O)O)c3cc(F)ccc32)cc1` [SULINDAC SULFIDE], the IC50 entry in data set [1] was “Not Active”; in data set [2] (erythrocyte), “Not Active”; in data set [3] (read-out: IC50) it was 1.09 µM; in data set [4], “Not Active”; in data set [5] it was “Not Active”; in data set [6], “Not Active”. Moreover, the IC50 entry in data set [7] is given as “Not Active”. The Ki result in data set [7] is recorded as “Not Active”.

Turning to `CC(=O)[C@@]1(O)CC[C@H]2[C@@H]3C[C@H](C)C4=CC(=O)CC[C@]4(C)[C@H]3CC[C@@]21C`, the IC50 result in data set [1], in data set [2] (erythrocyte), in data set [3], in data set [4], in data set [5] and in data set [6] was “Not Active” throughout. For the same molecule, the concentration for half-maximal inhibition (IC50) result in data set [7] was “Not Active”. Moreover, in data set [7], the Ki entry was “Not Active”.

Take `Cc1noc(NS(=O)(=O)c2ccc(N)cc2)c1C` [SULFISOXAZOLE]: the half-maximal inhibitory concentration (IC50) entry in data set [1], in data set [2] (erythrocyte), in data set [3], in data set [4], in data set [5] and in data set [6] was “Not Active” each time. Besides, the IC50 result in data set [7] is on record as “Not Active”. Moreover, in data set [7], the Ki result is on record as “Not Active”.

`N[C@@H](Cc1ccc(O)c(O)c1)C(=O)O` [LEVODOPA]: the IC50 result in data set [1], in data set [2] (erythrocyte), in data set [3], in data set [4], in data set [5] and in data set [6] was “Not Active” in each case. Moreover, in data set [7], the IC50 entry is “Not Active”. In addition, the Ki result in data set [7] was “Not Active”.

Regarding `NS(=O)(=O)c1cc2c(cc1Cl)NC(C(Cl)Cl)NS2(=O)=O` (stereo not given) [TRICHLORMETHIAZIDE], the IC50 result in data set [1], in data set [2] (erythrocyte), in data set [3], in data set [4], in data set [5] and in data set [6] was “Not Active” in each case. Moreover, the IC50 result in data set [7] is listed as “Not Active”. Further, the Ki entry in data set [7] is “Not Active”.

On to `NC[C@H]1CC[C@H](C(=O)O)CC1` [TRANEXAMIC ACID], for which the IC50 entry in data set [1], in data set [2] (erythrocyte), in data set [3], in data set [4], in data set [5] and in data set [6] was “Not Active” each time. In addition, the IC50 entry in data set [7] is reported as “Not Active”. For the same molecule, the Ki entry in data set [7] is on record as “Not Active”.

As for `c1ccc([C@H]2CN3CCSC3=N2)cc1` [LEVAMISOLE], the half-inhibitory concentration (IC50) entry in data set [1], in data set [2] (erythrocyte), in data set [3], in data set [4], in data set [5] and in data set [6] was “Not Active” throughout. For the same molecule, in data set [7], the IC50 entry is reported as “Not Active”. Moreover, the Ki entry in data set [7] is given as “Not Active”.

Regarding SODIUM NITROPRUSSIDE, the IC50 entry in data set [1], in data set [2] (erythrocyte), in data set [3], in data set [4], in data set [5] and in data set [6] was “Not Active” throughout. In addition, the IC50 entry in data set [7] is on record as “Not Active”. Moreover, the Ki result in data set [1], in data set [2] (erythrocyte), in data set [3], in data set [4], in data set [5] and in data set [6] was “Not Active” each time. Moreover, in data set [7], the Ki entry was “Not Active”.

For `CO[C@H]1/C=C/O[C@@]2(C)Oc3c(C)c(O)c4c(O)c(c(/C=N/N5CCN(C)CC5)c(O)c4c3C2=O)NC(=O)/C(C)=C\C=C\[C@H](C)[C@H](O)[C@@H](C)[C@@H](O)[C@@H](C)[C@H](OC(C)=O)[C@@H]1C` [RIFAMPIN], the IC50 result in data set [1], in data set [2] (erythrocyte), in data set [3], in data set [4], in data set [5] and in data set [6] was “Not Active” each time. Besides, the IC50 entry in data set [7] is recorded as “Not Active”. Further, the Ki result in data set [7] is reported as “Not Active”.

As to `Cc1oncc1C(=O)Nc1ccc(C(F)(F)F)cc1` [LEFLUNOMIDE], the IC50 entry in data set [1], in data set [2] (erythrocyte), in data set [3], in data set [4], in data set [5] and in data set [6] was “Not Active” each time. In addition, in data set [7], the IC50 result is recorded as “Not Active”. Further, the Ki result in data set [7] is “Not Active”.

For the molecule `N#CC(C#N)=Cc1ccc(O)c(O)c1` [TYRPHOSTIN 23], the IC50 result in data set [1], in data set [2] (erythrocyte), in data set [3], in data set [4], in data set [5] and in data set [6] was “Not Active” in each case. Further, the IC50 result in data set [7] is listed as “Not Active”. In addition, the Ki result in data set [7] is on record as “Not Active”.

The IC50 is the concentration at which inhibition is half-maximal.
